Experimental data published in patent US20250195522A1, “TRANSDERMAL DOSAGE FORM, FOR PROMOTING LOCAL BLOOD FLOW, OF DUAL-ACTING PDE5 INHIBITOR/ORGANIC NITRATE ESTER” (UIF (University Industry Foundation), Yonsei University, priority 2022, published 2025).
Entries after “also recorded” stand apart in the source; their conditions may differ.

Experiments:
Versican (VCAN) = assay: Immunohistochemical staining of mouse back skin, dermal papilla cell marker Versican (VCAN); assay type: in vivo, mice; conditions: Day 21
Text: (§1) The development of skin tissue, which becomes the surrounding support for hair growth, plays an important role in hair growth. As such, in order to compare the degree of the development of skin tissue in 6 experimental groups of the vehicle-applied control group (topical control), the Minoxidil-applied positive control group (topical minoxidil), the Cp 1 application group (topical Cp 1), the candlelit-shaped microneedle control group (CMN control), the Cp 1 microneedle administration group (Cp 1 conv-DMN) and the Cp 1 candlelit-shaped microneedle administration group (Cp 1 CMN), β-catenin and PCNA, which are biomarkers indicating skin tissue proliferation, the vascular endothelial cell marker MECA 32 showing the development of the vascular network around the mouse hair follicle, and the dermal papilla cell (DP) marker Versican (VCAN), which is generated in the hair follicle anagen phase showing the hair follicle anagen phase inducing effect, were observed by immunohistochemical staining. To this end, as in Example 1-2, the back tissue of the mice was collected on Day 21, then the frozen tissue was sectioned, and the fluorescent material-conjugated antibody was treated on the tissue, and then the fluorescence images were analyzed. The antibodies used were β-catenin (BD Biosciences, San Jose, CA, USA), PCNA (LSBIO, Seattle, WA, USA), VCAN (LSBIO, Seattle, WA, USA) and MECA-32 (Novus Biologicals, CA, USA), respectively.

[1] = system: C57BL/6 mice with hair follicles in the telogen phase; assay: Hair growth in hair-removed C57BL/6 mice, evaluated on Day 21 (visual/Image J, H&E); assay type: in vivo; conditions: for skin area converted to black (anagen phase) with respect to the total hair-removed skin area / skin area with actual hair growth as a percentage of the total hair removal skin area: 50 μL
Procedure: 7-week-old C57BL/6 mice (Orient Bio, Korea) with hair follicles in the telogen phase were purchased and the experiment was performed. The experiment was conducted using 4 mice each for 6 experimental groups of a vehicle-applied control group (topical control), a Minoxidil-applied positive control group (topical Minoxidil), an Cp 1-applied group (topical Cp 1), a candlelit-shaped microneedle control group (CMN control), an Cp 1 microneedle administration group (Cp 1 conv-DMN) and an Cp 1 candlelit-shaped microneedle administration group (Cp 1 CMN).
In the topical formulation, polyethylene glycol 400 (PEG 400; Sigma-Aldrich, St. Louis, MO, USA) and ethanol (99.5°; Sigma-Aldrich) were mixed in 50 μL solution with a ratio of 7:3 (v/v) containing 2% (w/v) of minoxidil (Sigma-Aldrich) and 0.002% (w/v) of Cp-1 (2 μg per day). The topical formulation groups' 50 μL solutions were administered twice a day.
The experiment was started in a pink skin condition by removing the hair on the back of the mice, and the drug application was carried out twice a day for 21 days, and when injected using a microneedle, it was injected once every 2 days and was not injected on last Day 21.
On Day 21 of the administration, the area in which the color of the back of the mice was changed to black, that is, the area converted to the anagen phase among the shaved areas was analyzed with the naked eye and the Image J software (National Institutes of Health, Bethesda, MD, USA), which is an image analysis program.
On Day 21 of the administration, the ratio of actual hair growth on the back of the mice was analyzed with the naked eye and the Image J software (National Institutes of Health, Bethesda, MD, USA), which is an image analysis program.
On Day 21 of the administration, the distribution rate by hair growth cycle in mice was compared.

MECA 32 = assay: Immunohistochemical staining of mouse back skin, vascular endothelial cell marker MECA 32; assay type: in vivo, mice; conditions: Day 21
Text: as §1

β-catenin = assay: Immunohistochemical staining of mouse back skin, β-catenin; assay type: in vivo, mice; conditions: Day 21
Text: as §1

[2] = topical application twice a day
[3] = topical application twice a day, 2% (w/v) minoxidil or 0.002% (w/v) Cp 1
[4] = general microneedle or candlelit-shaped microneedle

SMILES	expression level of VCAN (rank order of groups) (Versican (VCAN); topical application)	hair growth effect and skin tissue development (visual observation, H&E) [1, 2]	hair follicles converted to the anagen phase (distribution rate by hair growth cycle, H&E) [1, 3]	skin area converted to black (anagen phase) with respect to the total hair-removed skin area [1, 3]	skin area with actual hair growth as a percentage of the total hair removal skin area [1, 3]	expression level of MECA 32 (rank order of groups) (MECA 32; topical application)	expression level of VCAN (rank order of groups) (Versican (VCAN); [4])	skin thickness and hair thickness ([1]; administered using microneedles, especially candlelit-shaped microneedles)	skin thickness and hair thickness ([1]; topical application, compared to topical Minoxidil)	β-catenin expression (β-catenin; Cp 1 applied, compared with Minoxidil applied)	β-catenin expression (β-catenin; administered using a candlelit-shaped microneedle)	β-catenin expression (β-catenin; administered with a microneedle, compared with Minoxidil applied)	expression level of MECA 32 (rank order of groups) (MECA 32; [4])
Nc1cc(N2CCCCC2)nc(N)[n+]1[O-] [Minoxidil, 2,4-diamino-6-piperidinopyrimidine-3-oxide, reference compound]	increased in the order of Minoxidil application, Cp 1 application, Cp 1 administration using a general microneedle and M-19 administration using a candlelit-shaped microneedle	increased skin thicknesses along with the hair growth effect	52.5±1.3%	65.3±22.3%	38.4±17.1%	increased in the order of Minoxidil application. Cp 1 application, Cp 1 administration using a general microneedle and M-19 administration using a candlelit-shaped microneedle	–	–	–	–	–	–	–
CCCOc1ccc(S(=O)(=O)N2CCC(CCO[N+](=O)[O-])(CCO[N+](=O)[O-])CC2)cc1-c1nc2c(CCC)cn(CC)c2c(=O)[nH]1 [Cp 1, (1-((3-(5-ethyl-4-oxo-7-propyl-4,5-dihydro-3H-pyrrolo[3,2-d]pyrimidin-2-yl)-4-propoxyphenyl)sulfonyl)piperidine-4,4-diyl)bis(ethane-2,1-diyl) dinitrate]	increased in the order of Minoxidil application, Cp 1 application, Cp 1 administration using a general microneedle and M-19 administration using a candlelit-shaped microneedle	increased skin thicknesses along with the hair growth effect; also recorded: more effective than Minoxidil treatment	–	92.1±3.0%	61.0±14.0%	increased in the order of Minoxidil application. Cp 1 application, Cp 1 administration using a general microneedle and M-19 administration using a candlelit-shaped microneedle	increased in the order of Minoxidil application, Cp 1 application, Cp 1 administration using a general microneedle and M-19 administration using a candlelit-shaped microneedle	more significantly improved skin thickening effect and hair thickness improvement effect	more improved skin thickening effect and hair thickness improvement effect	higher	highest β-catenin expression effect	higher	increased in the order of Minoxidil application. Cp 1 application, Cp 1 administration using a general microneedle and M-19 administration using a candlelit-shaped microneedle
